Data set [1] deals with T1, rat intestinal bile acid transporter (Rattus norvegicus, UniProt Q62633).
T1 sequence (Q62633 1-348): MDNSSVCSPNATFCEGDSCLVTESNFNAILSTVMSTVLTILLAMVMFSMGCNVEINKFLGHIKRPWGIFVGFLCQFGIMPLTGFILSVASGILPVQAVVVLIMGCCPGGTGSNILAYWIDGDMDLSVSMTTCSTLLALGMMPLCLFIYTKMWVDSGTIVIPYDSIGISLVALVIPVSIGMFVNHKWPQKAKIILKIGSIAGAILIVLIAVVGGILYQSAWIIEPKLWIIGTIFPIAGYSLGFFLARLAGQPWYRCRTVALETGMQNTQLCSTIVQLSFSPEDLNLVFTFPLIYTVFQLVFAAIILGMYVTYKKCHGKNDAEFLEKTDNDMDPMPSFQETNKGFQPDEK
In words: Substrate activity for the intestinal bile acid transporter. The data set is classed as cell-based.

The nature of another data set: Oral absorption in rat. The data set is classed as in vivo.

Consider “cholyl-lys-(ε-NBD)-OH [cholyl-L-Lys-(ε-NBD)-OH]”, for which, in data set [1], the “substrate for the rat intestinal bile acid transporter” value was “substrate”. Further, the oral absorption result in “Oral absorption in rat” (rat) is given as “effectively absorbed orally”.
Take `COc1ccc2cc(C(C)C(=O)NCCCCC(NC(=O)CCC(C)C3CCC4C5C(O)CC6CC(O)CCC6(C)C5CC(O)C34C)C(=O)O)ccc2c1` (stereo not shown) [Cholyl-Lysine-(ε-Naproxen)-OH]: the “substrate for the rat intestinal bile acid transporter” value in data set [1] is recorded as “retains activity”. Besides, in the data set “Oral absorption in rat”, the “hydrolysis upon oral absorption (uncharacterized amidase activity) releasing parent drug” value is “hydrolyzed”.

Source of the values: US7413536B1, “Substrates and screening methods for transport proteins” (XenoPort, Inc., priority 1999, dated 2008).
